Laboratory results from patent EP4603105A1, “PHARMACEUTICAL COMPOSITION CONTAINING CYCLIC COMPOUND HAVING SELECTIVE KRAS INHIBITORY EFFECT AGAINST HRAS AND NRAS” (CHUGAI SEIYAKU KABUSHIKI KAISHA, priority 2022, dated 2024).
Where a SMILES comes first, the peptide text is derived from it. Bridges are numbered along the chain shown (N, C = ends). [ ]: non-standard residue; d: D form. The star is where a group is joined. hPhe(3-Cl-4-CF3) = N[C@@H](CCc1ccc(C(F)(F)F)c(Cl)c1)C(=O)O; NEtPhe(4-CF3) = CCN[C@@H](Cc1ccc(C(F)(F)F)cc1)C(=O)O; NMeGly(cPent) = CN[C@H](C(=O)O)C1CCCC1; NMeD = CN[C@@H](CC(=O)O)C(=O)O; NMeL = CN[C@@H](CC(C)C)C(=O)O; Morpholide = C1CN(*)CCO1; Aib = CC(C)(N)C(=O)O; Sar = CNCC(=O)O

Key:
[1] = system: human lung cancer strain NCI-H441; assay type: cell-based
Procedure, shortened: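 Step one: dispense the test compound in serial DMSO dilutions. Step three: add the reagent and measure […].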

[2] = target: GDP-bound NRAS wild-type protein (Homo sapiens, UniProt P01111); assay: Binding to NRAS by surface plasmon resonance (SPR), KD and KD ratio to KRAS
Sequence of GDP-bound NRAS wild-type protein (P01111 whole entry): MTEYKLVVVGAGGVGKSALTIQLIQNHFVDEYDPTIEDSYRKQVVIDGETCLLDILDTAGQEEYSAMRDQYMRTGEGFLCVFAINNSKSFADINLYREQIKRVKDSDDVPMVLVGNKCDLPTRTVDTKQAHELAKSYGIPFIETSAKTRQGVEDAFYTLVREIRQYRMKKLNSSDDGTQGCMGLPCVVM
Procedure, shortened: (§1)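 Captured GDP-RAS (~100–300 RU) was exposed to increasing compound concentrations, 75 s per step, in running buffer with 10 µM GDP, 10 mM MgCl2 and 4% DMSO at pH 7.4.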

[3] = target: GDP-bound KRAS wild-type protein (Homo sapiens, UniProt P01116); assay: Binding to KRAS by surface plasmon resonance (SPR), dissociation constant KD
Sequence of GDP-bound KRAS wild-type protein (P01116 1-188 isoform P01116-2): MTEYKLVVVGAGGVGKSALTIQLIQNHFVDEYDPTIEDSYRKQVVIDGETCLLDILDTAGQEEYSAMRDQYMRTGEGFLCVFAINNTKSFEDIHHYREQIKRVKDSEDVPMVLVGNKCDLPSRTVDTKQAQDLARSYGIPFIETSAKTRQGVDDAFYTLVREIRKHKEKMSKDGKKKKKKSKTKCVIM
Procedure, shortened: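 Running buffer contained 10 µM GDP and 10 mM MgCl2 to keep RAS in the GDP state, with 4% DMSO at pH 7.4. Compounds were flowed at 100 µL/min in 75 s steps of rising concentration over captured biotin-Avi RAS at 30°C. Sensorgrams were fitted 1:1 for KD.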

HRAS wild-type protein = HRAS wild-type protein (Homo sapiens, UniProt P01112); assay: Binding to HRAS by surface plasmon resonance (SPR), KD and KD ratio to KRAS
Sequence of HRAS wild-type protein (P01112 whole entry): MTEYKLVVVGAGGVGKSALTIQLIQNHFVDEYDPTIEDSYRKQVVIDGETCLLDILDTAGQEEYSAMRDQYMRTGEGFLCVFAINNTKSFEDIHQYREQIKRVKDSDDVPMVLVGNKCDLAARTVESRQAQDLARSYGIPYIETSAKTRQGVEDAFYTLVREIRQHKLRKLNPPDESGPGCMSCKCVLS
Procedure, shortened: as §1

[4] = ratio of KD for GDP-bound NRAS wild-type protein to KD for KRAS
[5] = ratio of KD for HRAS wild-type protein to KD for KRAS
[6] = ratio of the KD value with respect to GDP-bound NRAS wild-type protein to the KD value with respect to KRAS
[7] = Single Cycle Kinetics, 1:1 binding model
[8] = ratio of the KD value with respect to HRAS wild-type protein to the KD value with respect to KRAS

SMILES	IC50 [1] [nM]	Kd ([3]; Single Cycle Kinetics) [nM]	Kd ([3]; 1:1 binding model) [nM]	Kd [3, 7] [nM]	NRAS /KRAS [2, 4]	HRAS /KRAS (HRAS wild-type protein; [5])	NRAS /KRAS [2, 6]	HRAS /KRAS (HRAS wild-type protein; [8])	NRAS /KRAS ([2]; ratio of KD value for GDP-bound NRAS wild-type protein to KD value for KRAS (SPR))	HRAS /KRAS (HRAS wild-type protein; ratio of KD value for HRAS wild-type protein to KD value for KRAS (SPR))
CC[C@H](C)[C@@H]1NC(=O)[C@H](COC)N(C)C(=O)C[C@@H](C(=O)N2CCOCC2)N(C)C(=O)[C@H](C2CCCC2)N(C)C(=O)C2(CCC2)NC(=O)[C@@H]2CC(F)(F)CN2C(=O)[C@H](CCc2cc(F)c(C(F)(F)F)c(F)c2)NC(=O)CN(C)C(=O)[C@H](Cc2ccc(C(F)(F)F)cc2)N2CCCCC[C@@H](C2=O)N(C)C(=O)CN(C)C1=O [PP0834]	13.6	0.19	–	–	A (a compound having 10 or more and less than 20 is denoted as A)	B (a compound having 3 or more and less than 10 is denoted as B)	–	–	–	–
CC[C@H](C)[C@@H]1NC(=O)[C@H](CC(C)C)N(C)C(=O)C[C@@H](C(=O)N2CCOCC2)N(C)C(=O)[C@H](C2CCC2)N(C)C(=O)C2(CCCC2)NC(=O)[C@@H]2CCCN2C(=O)[C@H](CCc2cc(F)c(C(F)(F)F)c(F)c2)NC(=O)CN(C)C(=O)[C@H](Cc2ccc(C(F)(F)F)cc2)N2CCCCC[C@@H](C2=O)N(C)C(=O)CN(C)C1=O [PP0504]	235	–	–	14	–	–	B (a compound having 3 or more and less than 10 is denoted as B)	B (a compound having 3 or more and less than 10 is denoted as B)	–	–
CCC[C@H]1C(=O)N[C@@H](C2CCCC2)C(=O)N(C)CC(=O)N(C)[C@H]2C/C=C\CCN(C2=O)[C@@H](Cc2ccc(C)cc2)C(=O)N(C)CC(=O)N[C@@H](CCc2ccc(C(F)(F)F)c(OC)c2)C(=O)N2CC3(CC3)C[C@H]2C(=O)NC2(CC(C)(C)C2)C(=O)N(C)[C@@H](C2CCCC2)C(=O)N(C)[C@H](C(=O)N(C)C)CC(=O)N1C [PP2994]	15.8	–	0.21	–	AA (a compound having 20 or more is denoted as AA)	A (a compound having 10 or more and less than 20 is denoted as A)	–	–	–	–
CC[C@H](C)[C@@H]1NC(=O)[C@H](CC(C)C)N(C)C(=O)C[C@@H](C(=O)N2CCOCC2)N(C)C(=O)[C@H](C2CCCC2)N(C)C(=O)C(C)(C)NC(=O)[C@@H]2CCCN2C(=O)[C@H](CCc2ccc(C(F)(F)F)c(Cl)c2)NC(=O)CN(C)C(=O)[C@H](Cc2ccc(C(F)(F)F)cc2)N(CC)C(=O)CN(C)C(=O)CN(C)C1=O [PP0235] ([NMeL]I[Sar][Sar][NEtPhe(4-CF3)][Sar][hPhe(3-Cl-4-CF3)]P[Aib][NMeGly(cPent)][NMeD]-Morpholide; lactam N-11)	4.5	–	0.15	–	B (a compound having 3 or more and less than 10 is denoted as B)	C (A compound having a KD ratio of 0.1 or more and less than 3 is denoted as C)	–	–	–	–
CCO[C@@H]1C[C@H]2C(=O)NC3(CCC3)C(=O)N(C)[C@@H](C(CC)CC)C(=O)N(C)[C@H](C)CC(=O)N(C)[C@@H](CC3CC3)C(=O)N[C@@H]([C@@H](C)CC)C(=O)N(C)CC(=O)N(C)[C@H]3C/C=C\CCN(C3=O)[C@@H](Cc3ccc(F)cc3C)C(=O)N(C)CC(=O)N[C@@H](CCc3cc(F)c(C(F)(F)F)c(F)c3)C(=O)N2C1 [PP1520]	575	–	–	6.6	–	–	–	–	A (a compound having 10 or more and less than 20 is denoted as A)	A (a compound having 10 or more and less than 20 is denoted as A)

Now from value to compound, other results behind:

IC50 [1] [nM]	Kd ([3]; Single Cycle Kinetics) [nM]	Kd ([3]; 1:1 binding model) [nM]	Kd [3, 7] [nM]	SMILES	NRAS /KRAS [2, 4]	HRAS /KRAS (HRAS wild-type protein; [5])	NRAS /KRAS [2, 6]	HRAS /KRAS (HRAS wild-type protein; [8])	NRAS /KRAS ([2]; ratio of KD value for GDP-bound NRAS wild-type protein to KD value for KRAS (SPR))	HRAS /KRAS (HRAS wild-type protein; ratio of KD value for HRAS wild-type protein to KD value for KRAS (SPR))
7.7	–	0.073	–	CCC[C@H]1C(=O)N[C@@H]([C@@H](C)CC)C(=O)N(C)CC(=O)N(C)[C@H]2C/C=C\CCN(C2=O)[C@@H](Cc2ccc(C)cc2)C(=O)N(C)CC(=O)N[C@@H](CCc2ccc(C(F)(F)F)c(OC)c2)C(=O)N2CC3(CC3)C[C@H]2C(=O)NC2(CC(C)(C)C2)C(=O)N(C)[C@@H](CC(C)(C)C)C(=O)N(C)[C@H](C(=O)N(C)C)CC(=O)N1C [PP3009]	A (a compound having 10 or more and less than 20 is denoted as A)	A (a compound having 10 or more and less than 20 is denoted as A)	–	–	–	–
20.3	–	–	0.52	CCO[C@@H]1C[C@H]2C(=O)NC3(CCC3)C(=O)N(C)[C@@H](C3CCCC3)C(=O)N(C)[C@H](C(=O)N(C)C)CC(=O)N(C)[C@@H](CC(C)(C)C)C(=O)N[C@@H]([C@@H](C)CC)C(=O)N(C)CC(=O)N(C)[C@H]3CCCCCN(C3=O)[C@@H](Cc3ccc(C(F)(F)F)cc3)C(=O)N(C)CC(=O)N[C@@H](CCc3cc(F)c(C(F)(F)F)c(F)c3)C(=O)N2C1 [PP0669]	–	–	B (a compound having 3 or more and less than 10 is denoted as B)	B (a compound having 3 or more and less than 10 is denoted as B)	–	–
